The results in this text go back to the NIST ThermoML archive (doi:10.1021/je8006088).

For the data set the following is noted: Crystal; visual observation.

± gives the expanded uncertainty stated by the source.

Consider `CC(C)=CCC[C@@H](C)[C@H]1CC[C@H]2[C@@H]3CC=C4C[C@@H](O)CC[C@]4(C)[C@H]3CC[C@]12C` [desmosterol], for which the Normal melting temperature came out at 120.6 ± 1.1 °C.
